Measurements reported in publication PMC10514447 (The Journal of Biological Chemistry, 2023).

System: GCGR ECD
Assay: TIRF-based smFRET of GCGR ECD dynamics in the presence of ligands
Design: species or system human
Settings: for smFRET histogram peak location (FRET efficiency), green peak / smFRET histogram peak location (FRET efficiency), red peak: 64 molecules (glucagon), 86 (MK0893)
Excerpt: We used smFRET to examine the conformational behavior of the GCGR ECD. smFRET is a well-established technique for studying the conformational dynamics of biomolecules at the single molecule level ([38], [39]), as it is sensitive to changes in distances in vitro and in cells ([40]). First, we specifically expressed and purified a GCGR with two surface-exposed cysteines at positions 49 (Cys49) of the ECD and 287 (Cys287) of the extracellular side of helix IV (Fig. S4B). These two cysteines were site-specifically labeled with a FRET donor (Alexa Fluor 555) and a FRET acceptor (Alexa Fluor 647). The efficiency of energy transfer will report the proximity between the donor and acceptor fluorophores and any changes in that distance ([41], [42]). To view receptors under smFRET, the doubly labeled GCGR was surface-immobilized on a PEG-passivated quartz microscope slide using a biotin–streptavidin interaction, as shown in Figure 1A. A biotinylated anti-FLAG antibody was used to capture the FLAG-tagged GCGR (Fig. 1A). A 532 nm laser was used to excite the donor fluorophore by creating the evanescent field from the total internal reflection of the laser beam (Fig. 1A). The emission signals from the donor and acceptor fluorophores were detected by an electron-multiplied back-illuminated CCD camera. […] A control experiment was performed to test the specific immobilization of GCGR–micelle using a biotinylated antibody to a PEG-passivated quartz surface (Fig. S5A). […] Single-molecule fluorescence time trajectories were assessed and analyzed using custom software written in MATLAB.
Single-molecule fluorescence data were recorded using a customized prism-based total internal reflection fluorescence imaging system based on an inverted IX73 microscope (Olympus) equipped with a X60 objective (Olympus, 1.49 numerical aperture, water) as described in earlier publications ([47], [48], [49]). Quartz microscope slides (G. Finkenbeiner) and coverslips (Fisher Scientific #1254588) were cleaned and passivated with polyethylene glycol (m-PEG-SVA) and 3% (w/w) biotin-PEG-SVA (Laysan Bio) to prevent nonspecific protein adsorption, as previously described ([30]). A sample chamber was prepared using double-sided tape (Scotch) on PEGylated slides and coverslips ([48]). The sample chamber was first coated with 0.02 mg/ml NeutrAvidin (ThermoFisher Scientific #PI31000) and washed with T50 buffer (10 mM Tris, pH 7.4, 50 mM NaCl). A […] biotin-conjugated anti-FLAG antibody (GenScript #A01429) was injected and incubated for 20 min, followed by washing with the imaging buffer (25 mM HEPES pH 7.5, 150 mM NaCl, 2 mM Trolox, 0.05% DDM, 0.01% CHS) to remove unbound biotinylated anti-FLAG antibody. The GCGR sample was diluted in an imaging buffer, introduced into the sample chamber, and incubated for 30 min. The sample chamber was washed extensively with an imaging buffer to remove any unbound receptors. Finally, an oxygen scavenging system, 5 mM protocatechuic acid (Sigma #37580), and 3 U/ml protocatechuate-3,4-dioxygenase (Oriental Yeast) ([50]) in the imaging buffer were applied before total internal reflection fluorescence illumination. The sample was excited at […] (CrystaLaser), and emission intensities from both donor and acceptor fluorophores were collected on an EMCCD camera (Andor Technology) with 100 ms integration time using a custom single-molecule data acquisition program ([48]). All single-molecule measurements were performed at room temperature. Single-molecule time trajectories were extracted using scripts written in IDL software (Harris Geospatial Solutions, Inc).

[1] = GCGR labeled Alexa Fluor 555/647 at Cys49 and Cys287, DDM-CHS micelle, room temperature, Gaussian fit
[2] = Gaussian fit of smFRET histogram, ligand-bound GCGR
[3] = calculated from peak centre with Förster equation, R0 51 Å, glucagon-bound GCGR

Molecule	smFRET histogram peak location (FRET efficiency), blue peak (GCGR labeled Alexa Fluor 555/647 at Cys49 and Cys287, DDM-CHS micelle, room temperature, Gaussian fit, 64 molecules)	smFRET histogram peak location (FRET efficiency), green peak [1]	smFRET histogram peak location (FRET efficiency), red peak [1]	smFRET histogram peak width, blue peak [2]	smFRET histogram peak width, green peak [2]	smFRET histogram peak width, red peak [2]	smFRET histogram relative peak area, blue peak [2]	smFRET histogram relative peak area, green peak [2]	smFRET histogram relative peak area, red peak [2]	calculated distance, 0.53 FRET state [3]	calculated distance, 0.67 FRET state [3]	distance between the two fluorophores, 0.86 FRET state [3]	effect on the FRET distribution relative to apo-GCGR (saturating concentration of antagonist, histogram from 86 molecules)
glucagon	0.53	0.86	0.67	0.24	0.14	0.11	24%	59%	17%	50.0 Å	45.3 Å	37.7 Å	
COc1ccc2cc(-c3cc(-c4cc(Cl)cc(Cl)c4)nn3[C@@H](C)c3ccc(C(=O)NCCC(=O)O)cc3)ccc2c1 [MK0893]		0.91	0.75		0.09	0.19		47%	53%				no effect on the FRET distribution relative to the apo-GCGR
